Results as given in paper PMC2215335 (The Journal of General Physiology, 1977).
Entries after “also recorded” stand apart in the source; their conditions may differ.

What was measured:
[1] = tested on: membrane chloride conductance (GCl), rat diaphragm; assay: Inhibition of membrane chloride conductance; format: cell-based; conditions: for Relative potency: potency of 1 for a compound having a Ki of 1 x 10^-2 M; for Reduction of GCl: 10-s M (so in the source)
[2] = tested on: residual conductance in chloride-free solution (largely attributable to K+), rat diaphragm; assay: Residual conductance in chloride-free solution; format: cell-based
[3] = tested on: red blood cell (RBC) surface charge; assay: Electrophoretic mobility of erythrocytes; parameters: species or system human; conditions: concentrations 0.1 to 100 times the Ki
[4] = tested on: membrane anion permeability, rat diaphragm; assay: Anion permeability sequence, bi-ionic potential shift measurements; format: cell-based
rat diaphragm fibers = assay: Resting membrane potential of diaphragm fibers; format: cell-based; conditions: fibers exposed to 2 x 10-s M 9-AC (so in the source); SD
[5] = tested on: Cl- current, rat diaphragm fibers; assay: Current-voltage relationships of diaphragm fibers; format: cell-based; conditions: 2 x 10^-5 M 9-AC, 20 ms after onset of hyperpolarizing pulses, all voltage levels
[6] = tested on: membrane anion conductances (GCl, GBr, GNO3, GI), rat diaphragm; assay: Anion conductance sequence in rat diaphragm; format: cell-based
[7] = tested on: membrane resistance, rat diaphragm; assay: Membrane resistance of diaphragm in vitro during perfusion and wash; format: cell-based

Row | Compound | Relative potency [1] | Effects on residual conductances (GK) [2] | also measured
1 | 3,~-Dichloro-2-amino BA | 76 | + | –
2 | O=C(O)c1c(Cl)c(Cl)cc(Cl)c1Cl [2,3,5,6-Tetrachloro BA] | 47 | + | –
3 | Cc1cc(C)c(C)c(C(=O)O)c1C [2,3,5,6-Tetramethyl BA] | 16.7 | 0 | –
4 | Cc1c(C)c(C(=O)O)c(C)c(C)c1C(=O)O [2,3,5,6-Tetramethyl-4-COOH-BA] | < 0.1 | 0 | Effect on GCl (in words) ([1]; rat diaphragm): without detectable effect on Gel
5 | O=C(O)c1c(Cl)ccc(Cl)c1Cl [2,3,6-Trichloro BA] | 10.5 | 0 | –
6 | Cc1cc(C)c(C(=O)O)cc1C [2,4,5-Trimethyl benzoic acid] | 152 | + | Red blood cell (RBC) electrophoretic mobility [3]: No change; Permeability sequence inversion ([4]; increasing analog concentration): same sequence inversions were observed
7 | Cc1cc(C)c(C(=O)O)c(C)c1 [2,4,6-Trimethyl BA] | 2.5 | 0 | –
8 | O=C(O)COc1ccc(Cl)cc1Cl [2,4-Dichloro phenoxyacetic acid] | 5.0 | – | –
9 | Cc1ccc(C(=O)O)c(C)c1 [2,4-Dimethyl BA] | 6.2 | + | –
10 | O=C(O)c1cc(Cl)ccc1Cl [2,5-Dichloro BA] | 33.3 | 0 | –
11 | Cc1ccc(C)c(C(=O)O)c1 [2,5-Dimethyl BA] | 32 | 0 | –
12 | Cc1ccc(C)c(S(=O)(=O)O)c1 [2,5-Dimethyl benzene SOsH] | < 0.3 | 0 | –
13 | O=C(O)c1c(Cl)cccc1Cl [2,6-Dichloro BA] | 5.0 | 0 | –
14 | O=C(O)c1ccc(Cl)c(Cl)c1 [3,4-Dichloro BA] | 38 | 0 | –
15 | Cc1ccc(C(=O)O)cc1C [3,4-Dimethyl BA] | 5.0 | 0 | –
16 | O=C(O)c1cc(Cl)cc(Cl)c1 [3,5-Dichloro BA] | 40 | 0 | –
17 | Cc1cc(C)cc(C(=O)O)c1 [3,5-Dimethyl BA] | 6.7 | 0 | –
18 | Cc1cc(C(=O)O)cc(C)c1N [3,5-Dimethyl-4-amino BA] | < 0.3 | – | –
19 | Cc1cc(C(=O)O)cc(C)c1O [3,5-Dimethyl-4-hydroxy BA] | < 0.1 | 0 | –
20 | Cc1cc(C(=O)O)cc(C)c1[N+](=O)[O-] [3,5-Dimethyl-4-nitro BA] | 3.6 | 0 | –
21 | O=C(O)c1c(Cl)ccc(Cl)c1[N+](=O)[O-] [3,6-Dichloro-2-nitro BA] | 6.0 | 0 | –
22 | O=C(O)c1cc(Cl)c(Cl)cc1C(=O)O [4,5-Dichioro-2-COOH BA] | 0.63 | 0 | –
23 | O=C(O)c1c2ccccc2cc2ccccc12 [9-AC, anthracene-9-COOH] | 909 | 0 | Reduction of GCl ([1]; depolarizing pulses): 54%; Reduction of GCl ([1]; hyperpolarizing pulses): 58%; Percent reduction in observed GCl at varied external Ca2+ ([1]; 10^-5 M 9-AC, external [Ca2+] 2 mM, 10 mM and 20 mM): the same; Average resting membrane potential (RMP) (rat diaphragm fibers): 68.3 ± 3.8 mV; Red blood cell (RBC) electrophoretic mobility [3]: No change; Early I-V relationships relative to control values [5]: about 30 % of control; Anion conductance sequence ([6]; 8 x 10^-6 M 9-AC (table prints 8 x 10-e M)): CI>I>NO3>Br; Change of GI ([6]; 9-AC at 5 x 10^-5 M): appeared increased relative to control values; Reduction of GCl ([6]; 9-AC at 5 x 10^-5 M): > 90%; Change of GBr ([6]; 9-AC at 8 x 10^-6 M): changed little; Change of GI ([6]; 9-AC at 8 x 10^-6 M): appeared to increase; Reduction of GCl ([6]; 9-AC at 8 x 10^-6 M): approximately 50%; Effect on GI at concentrations reducing GCl by >90% ([6]; 9-AC concentrations reducing GCl by more than 90 percent): slight augmentation of G(I); also recorded: slight augmentation of GI; Relative permeability I- vs Cl- ([4]; 5 x 10^-5 M 9-AC, 30 min): more permeable to I- than to el-; Time for increase in membrane resistance to reach new steady value ([7]; 10^-5 M 9-AC in Ringer's): ≤ 10 min; Membrane resistance in chloride-free Ringer's ([7]; methylsulfate-substituted chloride-free Ringer's, same concentration (10^-5 M)): unaffected; Time for membrane resistance to return to near control levels ([7]; reperfusion with normal Ringer's after 10^-5 M 9-AC): 30 to 60 min
24 | O=C(O)c1ccccc1 [Benzoic acid (BA), Benzoic acid] | – | 0 | –
25 | O=C(O)c1c(Cl)c(Cl)c(Cl)c(Cl)c1Cl [Pentachloro BA] | 125 | + | –
